Patent US20100279976A1, “USE OF ARTEMISININ AND ITS DERIVATIVES IN CANCER THERAPY” (SHANGHAI INSTITUTES FOR BIOLOGICAL SCIENCES, CAS, priority 2009, published 2010)

Columns and labels:
[1] = system: OVCAR-3 ovarian carcinoma cells; test: MTT cell viability assay, OVCAR-3; type: cell-based; settings: Homo sapiens, OVCAR-3, 48 hrs
Text: (§1) Human ovarian IOSE144 (immortalized non-tumorigenic human ovarian surface epithelial cells) and ovarian carcinoma (A2780 and OVCAR-3) cells that may be obtained from the American Type Culture Collection (ATCC, Manassas, Va.) are gifts from Dr. Jing Fang (Institute for Nutritional Sciences, Shanghai, China). All cells may be cultured according to the ATCC instructions. The compounds (ARS, ART, ARM and DHA) may be dissolved in DMSO (<0.1%, final concentration).
(§2) The effects of ART derivatives on the viability of the aforementioned cells may be determined using the MTT assay. Briefly, 2,000 cells per well were plated in triplicate in 96-well plates. After a 24-h incubation, the cells may be treated with varying concentrations of ART derivatives (0, 1, 5, 10, 25, 50, and 100 μmol/L) for 48 h. The MTT assay may be performed according to the manufacture's instruction and the resultant formazan crystals may be dissolved in DMSO (100 μL). The absorbance may be then recorded at 540 nm. The effects of ART derivatives on cell viability may be assessed by comparing the percent cell viability of the treated cells with the vehicle (DMSO)-treated control cells, which may be arbitrarily assigned at 100% viability. The experiment may be repeated thrice under the same conditions.

[2] = system: four hepatoma cell lines (HepG2, Hep3B, Huh-7, BEL-7404); test: MTT assay, mean over four hepatoma cell lines; type: cell-based; settings: Homo sapiens, mean of HepG2, Hep3B, read-out: overall mean IC50 in the four hepatoma cell lines
Description: as §2

[3] = system: IOSE144 immortalized non-tumorigenic ovarian surface epithelial cells; test: MTT cell viability assay, IOSE144; type: cell-based; settings: Homo sapiens, IOSE-144, IOSE144, 48 hrs
Text: as §1, §2

[4] = system: Huh-7 hepatoma cells (p53 mutant); test: MTT cell viability assay, Huh-7; type: cell-based; settings: Homo sapiens, Huh-7 (p53 mutant), 48 h
Description: as §2

[5] = system: Hep3B hepatoma cells (p53 null); test: MTT cell viability assay, Hep3B; type: cell-based; settings: Homo sapiens, 48 h
Description: as §2

[6] = system: HepG2 hepatoma cells (p53 wild-type); test: MTT cell viability assay, HepG2; type: cell-based; settings: Homo sapiens, 48 h
Description: as §2

[7] = system: A2780 ovarian carcinoma cells; test: MTT cell viability assay, A2780; type: cell-based; settings: Homo sapiens, A2780, 48 hrs
Text: as §1, §2

[8] = system: 7702 normal human liver cells; test: MTT cell viability assay, normal liver cells; type: cell-based; settings: Homo sapiens, 7702 cells, 48 h; for IC20: read-out: IC20 (concentration that reduces growth by 20%)
Description: as §2

[9] = system: BEL-7404 hepatoma cells (p53 mutant); test: MTT cell viability assay, BEL-7404; type: cell-based; settings: Homo sapiens, BEL-7404 (p53 mutant), 48 h
Description: as §2

A2780 xenograft tumors = type: in vivo
Description: Four to six week old female athymic nude mice (BALB/c, nu/nu) may be purchased from Shanghai Experimental Animal Center (Shanghai, China). Animal studies are approved by the Institute for Nutritional Sciences. The tumor xenograft model may be established as follows. […] Aliquots of cells (˜5×10^6 cells/0.2 ml) may be injected subcutaneously into the left inguinal area of the mice. The tumor growth and body weight of the mice may be monitored every other day. Tumor mass may be determined. Mice bearing palpable tumors (˜70 mg) may be randomly divided into treatment and control groups n=5 mice/group). CBP may be dissolved in saline, and DHA may be dissolved in cremophor EL:ethanol:saline (5:5:90, v/v/v). DHA may be administered via i.p. injection at doses of 10 and 25 mg/kg/5 days/week for 3 weeks) alone or combined with CBP (at a single dose of 120 mg/kg, once on day 0). The control group receives saline only. Mice may be killed on day 18. Tumors may be carefully excised, trimmed of extraneous fat or connective tissue, and homogenized in RIPA buffer (100 mg tumor tissue/1 ml RIPA) and prepared for immunoblotting analysis as described above.

OVCAR-3 cells = test: Annexin V-FITC apoptosis assay, OVCAR-3; type: cell-based, human; settings: OVCAR-3, 24 hrs; DHA 1 μM, CBP 500 μM, alone or combined
Description: ART- and DHA-induced apoptosis alone or in combination with gemcitabine in HepG2 and Hep3B cells or in combination with carboplatin in ovarian cancer cells may be determined by flow cytometry using the Annexin V-FITC Apoptosis Detection kit following the manufacturer's instructions. […] The cells may then be harvested, washed in PBS, and incubated with Annexin V and propidium iodide for staining in binding buffer at room temperature for 10 min in the dark. The stained cells may be analyzed using the FACSAria instrument.

OVCAR-3 xenograft tumors = test: OVCAR-3 xenograft model in nude mice; type: in vivo; settings: CBP only, single dose 120 mg/kg on day 0
Description: Four to six week old female athymic nude mice (BALB/c, nu/nu) may be purchased from Shanghai Experimental Animal Center (Shanghai, China). Animal studies are approved by the Institute for Nutritional Sciences. The tumor xenograft model may be established as follows. Briefly, A2780 and OVCAR-3 cells may be harvested and re-suspended in serum-free RPMI 1640 medium containing 20% (v/v) Matrigel (BD Biosciences, Bedford, Mass., USA). Aliquots of cells (˜5×10^6 cells/0.2 ml) may be injected subcutaneously into the left inguinal area of the mice. The tumor growth and body weight of the mice may be monitored every other day. Tumor mass may be determined. Mice bearing palpable tumors (˜70 mg) may be randomly divided into treatment and control groups n=5 mice/group). CBP may be dissolved in saline, and DHA may be dissolved in cremophor EL:ethanol:saline (5:5:90, v/v/v). DHA may be administered via i.p. injection at doses of 10 and 25 mg/kg/5 days/week for 3 weeks) alone or combined with CBP (at a single dose of 120 mg/kg, once on day 0). The control group receives saline only. Mice may be killed on day 18. Tumors may be carefully excised, trimmed of extraneous fat or connective tissue, and homogenized in RIPA buffer (100 mg tumor tissue/1 ml RIPA) and prepared for immunoblotting analysis as described above.

HepG2 xenograft tumors = test: HepG2 xenograft model in nude mice; type: in vivo; settings: HepG2 xenograft, gemcitabine alone 80 mg/kg i.p. days 7, 11, 15
Description: Female athymic nude mice (nu/nu; 4-6 wk of age) may be obtained from Shanghai Slac Laboratory Animal Co. Ltd. All animals may be fed with commercial diet and water ad libitum. The human HCC xenograft models in mice may be as follows. Briefly, HepG2 and Hep3B cells may be re-suspended in serum-free DMEM with Matrigel basement membrane matrix at a 5:1 ratio. The cell suspension may then be injected (7×10^6 cells; total volume, 0.2 mL) into the left inguinal area of the BALB/c nude mice. The animals may be monitored for activity and physical condition everyday, and the determination of body weight and measurement of tumor mass may be done every 3 d. Tumor mass may be determined by caliper measurement in two perpendicular diameters of the implant and calculated using the formula ½a×b^2, where a stands for the long diameter and b is the short diameter. The animal use and care protocol is approved by the Institutional Review Board of the Institute for Nutritional Sciences, Chinese Academy of Sciences.
Nude mice bearing HepG2 and Hep3B xenografts, randomly divided into various treatment and control groups (five mice per group), may be treated orally with either ART or DHA suspended in 5% sesame oil+95% saline, at a dose of 50 or 100 mg/kg/d, or a combination of ART or DHA with gemcitabine or with saline (as controls). In the mice receiving combination therapy, 80 mg/kg gemcitabine, representing one fifth of the reported most tolerated dose in mice, may be administered i.p. on days 7, 11, and 15 to avoid possible side effects and to illustrate potential chemo-sensitization effects in this combination regimen.

HCC = settings: gemcitabine monotherapy, HCC patients; cited from earlier work

| IC50 [1] | IC50 [2] | IC50 [4] | IC50 [5] | IC50 [6] | IC50 [7] | SMILES | IC20 [1] | IC80 [1] | IC20 [3] | IC50 [3] | IC80 [3] | IC20 [4] | IC80 [4] | IC20 [5] | IC80 [5] | IC20 [6] | IC80 [6] | IC20 [7] | IC80 [7] | IC80 [8] | also measured |
| --- | --- | --- | --- | --- | --- | --- | --- | --- | --- | --- | --- | --- | --- | --- | --- | --- | --- | --- | --- | --- | --- |
| 38.8 µM | 42.3 µM | 31.4 µM | 51.5 µM | 54.8 µM | 53.9 µM | CO[C@H]1O[C@@H]2O[C@@]3(C)CC[C@H]4[C@H](C)CC[C@@H]([C@H]1C)[C@@]24OO3 [ARM, artemether] | 2.08 µM | > 500 µM | 98 µM | > 500 µM | > 500 µM | 1.2 µM | > 500 µM | 2.4 µM | > 500 µM | 2.6 µM | > 500 µM | 2.08 µM | > 500 µM | > 500 µM | IC20 [8]: 7.9 µM; IC50 [8]: 492 µM; IC20 [9]: 2.4 µM; IC50 [9]: 31.8 µM; IC80 [9]: > 500 µM |
|  |  |  |  |  |  | N.N.O=C([O-])C1(C(=O)[O-])CCC1.[Pt+2] [CBP, carboplatin] |  |  |  |  |  |  |  |  |  |  |  |  |  |  | tumor growth inhibition (A2780 xenograft tumors; A2780 xenograft, CBP only, single dose 120 mg/kg on day 0): 56%; host toxicity based on observation of body weight (A2780 xenograft tumors; mice bearing A2780 or OVCAR-3 xenografts): slight weight loss; rate of apoptosis (control regarded as 100%) (OVCAR-3 cells): 528%; tumor growth inhibition (OVCAR-3 xenograft tumors): 46% |
|  |  |  |  |  |  | Nc1ccn([C@@H]2O[C@H](CO)[C@@H](O)C2(F)F)c(=O)n1 [gemcitabine] |  |  |  |  |  |  |  |  |  |  |  |  |  |  | tumor growth inhibition (HepG2 xenograft tumors): 34.9%; median survival time (HCC): up to 34 weeks |
| 343 µM | 21 µM | 9.22 µM | 39.4 µM | 20.5 µM | > 500 µM | C[C@H]1[C@H](OC(=O)CCC(=O)O)O[C@@H]2O[C@@]3(C)CC[C@H]4[C@H](C)CC[C@@H]1[C@@]24OO3 [ARS, artesunate] | 3.93 µM | > 500 µM | > 500 µM | > 500 µM | > 500 µM | 0.6 µM | 146 µM | 1.5 µM | > 500 µM | 1.3 µM | 338 µM | 7.68 µM | > 500 µM | > 500 µM | IC20 [8]: 7.3 µM; IC50 [8]: > 500 µM; IC20 [9]: 1 µM; IC50 [9]: 15 µM; IC80 [9]: 215 µM |
